Values quoted from earlier work as cited in patent US12357592B2, “Compositions and methods for monitoring the treatment of breast disorders” (priority 2018, dated 2025).

Test system: breast cancer
Details: tamoxifen as prevention, given to healthy women; background statement

SMILES: CC/C(=C(\c1ccccc1)c1ccc(OCCN(C)C)cc1)c1ccccc1 [Tamoxifen, (Z)-2-[4-(1,2-diphenyl-1-butenyl)phenoxy]-N,N-dimethylethanamine]
- reduce the risk of breast cancer: ≤ 50%
